Source: the NIST ThermoML archive (doi:10.1021/je034087q)
± gives the expanded uncertainty stated by the source.

Experiment: xn = mol fraction of the nth substance listed
Details: Fluid (supercritical or subcritical phases), x2 = 0.901

CCCCC [pentane] + O=C=O
mass density [kg/m3]
Details	326.15 K	328.15 K
8540 kPa	461 ± 3	–
8560 kPa	465 ± 3	–
8580 kPa	469 ± 3	–
8610 kPa	472 ± 3	–
8630 kPa	476 ± 3	–
8650 kPa	–	431 ± 3
8670 kPa	481 ± 3	–
8690 kPa	–	436 ± 3
8700 kPa	486 ± 3	–
8720 kPa	–	442 ± 3
8740 kPa	491 ± 3	–
8760 kPa	–	448 ± 3
8780 kPa	496 ± 3	–
8830 kPa	–	459 ± 3
8840 kPa	503 ± 3	–
8870 kPa	509 ± 3	–
8880 kPa	–	465 ± 3
8920 kPa	516 ± 3	–
8930 kPa	–	473 ± 3
8970 kPa	520 ± 3	475 ± 3
9010 kPa	524 ± 3	–
9030 kPa	–	483 ± 3
9080 kPa	531 ± 3	–
9100 kPa	–	491 ± 3
9160 kPa	538 ± 3	499 ± 3
9220 kPa	544 ± 3	–
9230 kPa	–	507 ± 3
9320 kPa	–	517 ± 3
9350 kPa	551 ± 3	–
9410 kPa	–	524 ± 3
9420 kPa	558 ± 4	–
9500 kPa	562 ± 4	–
9530 kPa	–	533 ± 3
9560 kPa	567 ± 4	–
9630 kPa	–	542 ± 3
9680 kPa	573 ± 4	–
9760 kPa	579 ± 4	552 ± 3
9870 kPa	583 ± 4	–
9930 kPa	–	562 ± 4
9990 kPa	590 ± 4	–
10030 kPa	–	568 ± 4
10130 kPa	595 ± 4	572 ± 4
10230 kPa	–	579 ± 4
10250 kPa	601 ± 4	–
10350 kPa	–	584 ± 4
10380 kPa	–	586 ± 4
10410 kPa	608 ± 4	–
10490 kPa	–	590 ± 4
10580 kPa	–	594 ± 4
10720 kPa	618 ± 4	–
10750 kPa	–	601 ± 4
10880 kPa	–	606 ± 4
10920 kPa	625 ± 4	–
11060 kPa	–	612 ± 4
11140 kPa	–	614 ± 4
11150 kPa	631 ± 4	–
11380 kPa	638 ± 4	–
11500 kPa	–	625 ± 4
11660 kPa	645 ± 4	–
11670 kPa	–	629 ± 4
11800 kPa	–	634 ± 4
11950 kPa	652 ± 4	–
11970 kPa	–	639 ± 4
12180 kPa	–	642 ± 4
12280 kPa	658 ± 4	–
12340 kPa	–	646 ± 4
12560 kPa	–	652 ± 4
12630 kPa	666 ± 4	–
12760 kPa	–	655 ± 4
13020 kPa	–	661 ± 4
13030 kPa	673 ± 4	–
13280 kPa	–	665 ± 4
13480 kPa	680 ± 4	–
13560 kPa	–	669 ± 4
13790 kPa	–	674 ± 4
13950 kPa	686 ± 4	–
14260 kPa	–	682 ± 4
14540 kPa	696 ± 4	–
14800 kPa	700 ± 4	–
14810 kPa	–	691 ± 4
